Measurements as given in BindingDB's records for PubMed 36126447 (Acharya & Bm Reddy College of Pharmacy, 2022).

Biological target: Programmed cell death 1 ligand 1 (Homo sapiens) (UniProt Q9NZQ7)
Test: Inhibition of human PD-1/PDL1 protein-protein interaction by luminescence proximity homogeneous assay

Sequence of Programmed cell death 1 ligand 1 (Homo sapiens) (Q9NZQ7 whole entry, looked up): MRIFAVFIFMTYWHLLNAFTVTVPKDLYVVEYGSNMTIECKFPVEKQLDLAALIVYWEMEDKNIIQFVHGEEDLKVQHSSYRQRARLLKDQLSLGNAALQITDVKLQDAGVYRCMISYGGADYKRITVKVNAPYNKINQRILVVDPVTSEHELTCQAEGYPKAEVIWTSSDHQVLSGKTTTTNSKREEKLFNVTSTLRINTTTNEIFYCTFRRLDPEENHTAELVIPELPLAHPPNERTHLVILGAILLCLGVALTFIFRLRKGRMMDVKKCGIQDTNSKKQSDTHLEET

Which IC50 does the source give for `Cc1c(COc2ccc(C[C@H](N)C(=O)O)cc2Br)cccc1-c1ccccc1` here?
Its IC50 is 1500 nM.
